Experimental data from ChEMBL document CHEMBL1201862, “PubChem BioAssay data set” (2004).
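Values below derive from 48-hour exposures of cells grown in 96-well plates, with endpoints linearly interpolated between the two concentrations bracketing the appropriate inhibition level. At the GI50, growth is halved.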 Active and inactive are the calls of the source. Rule as the data show it: active = GI50 up to about 1.1 µM and inactive = higher.

Experiments:
Test in all cases: inhibition of tumour cell growth, NCI panel, 48 h
[1] = system: BT-549
[2] = system: DMS-273
[3] = system: SNB-78
[4] = system: DLD-1
[5] = system: HOP-18
[6] = system: DMS-114
[7] = system: KM-20L2
[8] = system: XF498

## Cc1cc(N2CCN(C)CC2)n2nc(-c3ccc(Cl)cc3)nc2n1
[1]
  GI50: 99.1 µM (inactive)

## COc1c(O)ccc2c1CN1CCc3cc4c(cc3C1C2)OCO4 (centres undefined)
[1]
  GI50: 28.2 µM (inactive)

## CCOC(=O)c1c(N=C(S)Nc2ccc(Cl)cc2)sc2c1CCN(C)C2
[1]
  GI50: 78.9 µM (inactive)

## O=c1[nH]c2nccnc2c2c([N+](=O)[O-])cccc12
[1]
  GI50: 65.2 µM (inactive)

## Nc1ccc(Oc2ccc(C34CC5C6CC7(c8ccc(Oc9ccc(N)cc9)cc8)CC5C(C3)C(C7)C6C4)cc2)cc1
[1]
  GI50: > 100 µM (inactive)

## O=C1C(C2=[N+]([O-])c3ccccc3C2=O)=[N+]([O-])c2ccccc21
[2]
  GI50: 30.9 µM (inactive)
[3]
  GI50: 38.3 µM (inactive)
[4]
  GI50: 23.9 µM (inactive)
[5]
  GI50: 20.2 µM (inactive)
[6]
  GI50: 17.9 µM (inactive)

## NC(=S)N/N=C/c1nccc2ccccc12
[7]
  GI50: 0.375 µM (active)
[2]
  GI50: 0.272 µM (active)
[4]
  GI50: 1.12 µM (active)
[5]
  GI50: 1.21 µM (inactive)
[6]
  GI50: 0.361 µM (active)

## C=C1C(=O)C=C[C@]2(C)CC[C@H]3C(=C)C(=O)O[C@@H]3[C@@H]12
[1]
  GI50: 2.35 µM (inactive)

## CC[n+]1[b-](C(C)(C)C)n(/N=C(\C)C(C)(C)C)[b-](C(C)(C)C)[n+]1CC
[1]
  GI50: > 100 µM (inactive)

## COC(C)(C)C1=CCC(C)CC1 (centres undefined)
[1]
  GI50: > 100 µM (inactive)

## CNC1Cc2c[nH]c3cccc(c23)C12C=C(C)C(=O)O2 (centres undefined)
[1]
  GI50: > 100 µM (inactive)

## Cc1ccc(Cn2c(C)nc3c2C(=O)c2ccccc2C3=O)cc1
[7]
  GI50: 5.21 µM (inactive)
[2]
  GI50: 1.07 µM (active)
[3]
  GI50: 20.3 µM (inactive)
[4]
  GI50: 1.22 µM (inactive)
[8]
  GI50: 15.1 µM (inactive)

## C=C(C(=O)OC)[C@H]1CC/C(C)=C/CC[C@@](C)(O)C=CC[C@@]2(C)O[C@@H]2C1
[1]
  GI50: 76.2 µM (inactive)

## CC[C@@H]1CC[C@@H]2[C@H](CC[C@]3(C)[C@@H](O[N+](=O)[O-])CC[C@@H]23)[C@H]1C(C)=O
[1]
  GI50: 50 µM (inactive)

## NC1=Nc2ccccc2Sc2nnc(-c3ccc(Cl)cc3)n21
[1]
  GI50: > 100 µM (inactive)

## O=C1CCCc2ccc3c(c21)CC1(Cc2cc4c(cc2C1)CCCC4)C3
[1]
  GI50: 25.1 µM (inactive)

## O=C(CN1CCCC1=O)CS(=O)(=O)c1ccccc1
[1]
  GI50: > 100 µM (inactive)

## COc1cc(CNC(=O)CCCCCCCCCCSSCCCCCCCCCCC(=O)NCc2ccc(O)c(OC)c2)ccc1O
[1]
  GI50: > 10 µM (inactive)

## COc1cc(Nc2nc3ccccc3nc2-c2cccs2)cc(OC)c1OC
[7]
  GI50: 36.1 µM (inactive)
[2]
  GI50: 29.2 µM (inactive)
[3]
  GI50: 90.6 µM (inactive)
[4]
  GI50: 23.7 µM (inactive)
[5]
  GI50: > 100 µM (inactive)
[8]
  GI50: 19.2 µM (inactive)

## C[N+]12C=CC=C1C(N1CCCC1)c1scc(-c3ccc(Br)cc3)c12 (centres undefined)
[1]
  GI50: 1.79 µM (inactive)

## Cc1ccc(NNc2cc(=O)[nH]c(=O)[nH]2)cc1Cl
[1]
  GI50: 41.1 µM (inactive)

## O=C1CN(c2ccc(Cl)cc2)C(=O)CN1NCNN1CC(=O)N(c2ccc(Cl)cc2)CC1=O
[1]
  GI50: > 100 µM (inactive)

## COc1ccc(/C(=N\NC(=O)C(N)=O)C(c2ccc(OC)cc2)C2(O)C(=O)Nc3c(Cl)cccc32)cc1 (centres undefined)
[7]
  GI50: > 100 µM (inactive)
[3]
  GI50: > 100 µM (inactive)
[4]
  GI50: > 100 µM (inactive)
[5]
  GI50: > 100 µM (inactive)
[8]
  GI50: > 100 µM (inactive)
[6]
  GI50: > 100 µM (inactive)

## Cc1cc(O)nc(NNC(C#N)c2ccco2)n1 (centres undefined)
[7]
  GI50: > 100 µM (inactive)
[2]
  GI50: > 100 µM (inactive)
[3]
  GI50: > 100 µM (inactive)
[4]
  GI50: > 100 µM (inactive)
[5]
  GI50: > 100 µM (inactive)
[6]
  GI50: > 100 µM (inactive)

## COC(=O)C12OC(C)(C(CC(=O)OC(C)(C)C)C1=O)C1C(=O)N(c3ccccc3)C(=O)C12 (centres undefined)
[1]
  GI50: > 100 µM (inactive)

## CCC1=C(C)C(=O)N/C1=C\c1[nH]c(C)c([C@H](C)CCN)c1C
[1]
  GI50: 16.3 µM (inactive)

## COc1ccc(OC)c(CNc2ccc(C(=O)O)cc2)c1
[1]
  GI50: > 100 µM (inactive)
